Reference: patent publication EP4792811A1, “S1PR4 REGULATOR COMPOUND FOR MUSCLE DISEASE TREATMENT AND APPLICATION THEREOF” (Shengyuan Zetong (Shanghai) Pharmaceutical Co., Ltd, priority 2023, dated 2025)
Numbering of substitutions follows the chain as printed. Entries after “also recorded” stand apart in the source; their conditions may differ. Each block holds one compound with its values, some of them ahead of it.

Columns and labels:
hS1P4 = molecular target: T1, hS1P4 (Homo sapiens, UniProt O95977); experiment: Tango β-arrestin recruitment assay, Tango-hS1P4-CHO; format: cell-based; conditions: final concentration 45 µM, 9 serial dilutions at 5-fold intervals; 20 h drug treatment; luciferase readout
T1 construct: expressed in transfected cells; host or cells: CHO-K1
T1 sequence (O95977 1-384): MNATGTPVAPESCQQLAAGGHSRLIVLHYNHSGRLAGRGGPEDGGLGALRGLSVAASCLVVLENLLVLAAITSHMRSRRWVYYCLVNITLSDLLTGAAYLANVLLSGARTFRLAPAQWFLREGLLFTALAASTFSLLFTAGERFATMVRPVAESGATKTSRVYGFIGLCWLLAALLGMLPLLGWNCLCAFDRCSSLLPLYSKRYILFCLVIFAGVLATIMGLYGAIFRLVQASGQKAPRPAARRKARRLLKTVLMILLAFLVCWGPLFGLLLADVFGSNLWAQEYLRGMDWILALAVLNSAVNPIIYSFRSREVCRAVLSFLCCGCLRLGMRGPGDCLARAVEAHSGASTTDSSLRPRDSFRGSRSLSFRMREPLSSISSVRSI
Excerpt: (§1) The Tango assay detects ligand-dependent GPCR activity through the interaction between β-arrestin and GPCRs. […] The NTEV fragment and the tetracycline transactivator (tTA), an artificial transcription factor, are fused at the C-terminus of the GPCR, while the CTEV fragment is fused to human β-arrestin 2. To enhance the stability of the interaction between GPCR and β-arrestin, a short sequence from the C-terminus of the human arginine vasopressin receptor 2 (V2 tail) is inserted between the GPCR and NTEV. The V2 tail contains multiple GRK phosphorylation sites, which strengthen β-arrestin binding upon phosphorylation. The CTEV fragment carries the stabile point mutation S219P and is truncated at residue 221 to remove the autoinhibitory C-terminal tail. Meanwhile, β-arrestin 2 is truncated to lack the entire C-terminal tail (residues 383-410 deleted). This truncation confers robust stimulus-dependent receptor desensitization, thereby improving detection sensitivity compared with wild-type β-arrestin 2. The UAS reporter construct consists of upstream activating sequence (UAS) elements, a minimal CMV promoter, and a tTA-dependent luciferase reporter gene. Therefore, constructing Tango cells requires the co-transfection of the above three plasmids into host cells. Upon GPCR activation and β-arrestin recruitment, the TEV enzyme at the β-arrestin terminus cleaves tTA from the GPCR C-terminus. The released tTA initiates tTA-dependent luciferase transcription, and compound activity is ultimately determined by measuring luminescence intensity.
(§2) • 1) Tango cell line from was digested from the culture dish respectively. After cell counting, the cells were plated at a density of 10,000 cells per well with […] into a white opaque 96-well plate (add 60 µL D'Hanks to the surrounding wells), and incubated overnight (20 h) in a 5% CO2 incubator at 37°C. The cell density will reach approximately 90% the next day. • 2) After 20 h, 30 µL of serially diluted compound solution was added to each well. The control group was supplemented with 30 µL F12K complete medium. Each group had three replicate wells. • 3) Samples were collected after 20 h of drug treatment.
(§3) (All compounds were tested at a final concentration of 45 µM, with 9 serial dilutions at 5-fold intervals. 1 µM BAF-312 was used as the positive control for S1PR1, and 25 µM BAF-312 was used as the positive control for S1PR4.)
(§4) ^a β-arrestin recruitment activity based on Tango-S1PR1-CHO-K1 and Tango-S1PR4-CHO-K1 cells, expressed as mean EC50 values ± SD. ^b FLIPR assays were performed using S1PR2-CHO and S1PR5-CHO cell lines, expressed as mean EC50 values ± SD. ^c β-arrestin recruitment activity based on PathHunter CHO-K1-S1PR3 cells, expressed as mean EC50 values ± SD. Data are the mean of at least two independent determinations, reported as mean ± SD (standard deviation).

hS1P4-R-79C = molecular target: T2, hS1P4-R-79C (Homo sapiens, UniProt O95977, R79C); experiment: Tango β-arrestin recruitment assay, Tango-hS1P4-R-79C-CHO; format: cell-based; conditions: final concentration 45 µM, 9 serial dilutions at 5-fold intervals; 20 h drug treatment; luciferase readout
T2 construct: expressed in transfected cells; host or cells: CHO
T2 sequence (O95977 1-384 R79C): T1 sequence (O95977 1-384) with R79C
Excerpt: as §1, §2, §3

hS1P1 = molecular target: T3, hS1P1 (Homo sapiens, UniProt P21453); experiment: Tango β-arrestin recruitment assay, Tango-hS1P1-CHO; format: cell-based; conditions: final concentration 45 µM, 9 serial dilutions at 5-fold intervals; 20 h drug treatment; luciferase readout
T3 construct: expressed in transfected cells; host or cells: CHO-K1
Excerpt: as §1, §2, §3, §4

[1] = system: Duchenne muscular dystrophy model mice; experiment: In vivo efficacy in Duchenne muscular dystrophy mdx mice (Compound 67); conditions: for rotarod time: Day 42; for rotarod time / grip strength: compared with the model group; for grip strength: after 42 days of treatment
Protocol: Experimental animals: A total of 18 Duchenne muscular dystrophy model mice were divided into 3 groups with 6 mice in each group.
Intragastric administration was initiated on Day 0. Body weight was measured daily during the period to adjust the drug dosage. Grip strength and rotarod tests were performed on Day 20 and Day 42. Changes in the limb grip strength, exercise duration, and muscle fibrosis/inflammation in mice were detected as indicators for evaluating drug efficacy.
(§5) The mouse was placed horizontally on the grip test board. The mouse's tail was held and pulled gently in the opposite direction without using excessive force. The tail was gradually pulled until the mouse released the grip force sensor. The maximum value recorded by the grip force sensor is the grip strength. The test was repeated for 3 times and the average value was taken.
The rotarod test was conducted on Day 0, Day 20, and Day 42 respectively. The test was performed at an accelerating speed (0-16 rpm), reaching the maximum speed after 300 seconds, with a maximum test duration of 600 seconds. The time until the animal fell off was recorded^7.
(§6) After the experiment, the tibialis anterior, extensor digitorum longus, and diaphragm of the mice were harvested, fixed, sectioned, and subjected to HE staining and Sirius Red staining to observe the degree of muscle fibrosis.

S1PR4 = molecular target: T4, S1PR4 (Homo sapiens, UniProt O95977); experiment: S1PR4 internalization function test in S1PR4-293T cells; format: cell-based; conditions: 1 µM, 37 °C, 1.5 hours; detected immediately, or at 5 hours or 20 hours after treatment
T4 construct: expressed in transfected cells; host or cells: 293T
T4 sequence (O95977 1-384): T1 sequence (O95977 1-384)
Protocol: Therefore, the recovery degree of S1PR4 after internalization caused by Compound 30 was evaluated, and the recovery effect following receptor internalization caused by Compound 30 was assessed in cells with high S1PR4 expression.

LPS-induced sepsis model = experiment: LPS-induced sepsis myopathy (skeletal muscle atrophy) model; format: in vivo, mice; conditions: 14 days of LPS treatment
Excerpt: Animal models of sepsis can be established by injecting exogenous toxins into animals. In this study, a sepsis model was established via intraperitoneal injection of lipopolysaccharide to observe the effects of compounds on the occurrence and development of acquired weakness. This is a widely used method for modeling sepsis.
A skeletal muscle atrophy model induced by lipopolysaccharide can simulate clinical muscle atrophy caused by sepsis.
Mice were given a single intraperitoneal injection of LPS (1 mg/kg), followed by 14 consecutive days of intraperitoneal injection of either vehicle (1% DMSO dissolved in physiological saline) or Compound 30. Body weight was measured daily. After 14 days of LPS treatment, the mice were anesthetized, and the gastrocnemius and tibialis anterior muscles were harvested.

[2] = system: S1PR4-R82C/NDUFA10-R217W double-mutant mice; experiment: In vivo efficacy in S1PR4-R82C/NDUFA10-R217W double-mutant muscular dystrophy mice; conditions: 1 mg/kg intragastric once daily
Protocol: Experimental Animals: A total of 34 S1PR4-R82C/NDUFA10-R217W mice were divided into 6 groups as shown below.
Intragastric administration was initiated on Day 0, and body weight was measured daily during the experiment to adjust the drug dosage. Grip strength was measured at the beginning and end of the experiment to observe motor changes in mice. Changes in the limb grip strength, serum creatine kinase content, and muscle fibrosis/inflammation in mice were detected as indicators for evaluating drug efficacy.
as §5
(§7) After the completion of administration, blood was collected via the orbital sinus, allowed to stand for 30 minutes, centrifuged at 3000 rpm at 4°C for 15 minutes, and serum was extracted, stored frozen at -20°C, and detected in accordance with the kit instructions.
as §6, with “fibrosis. The slice was subjected to immunofluorescence staining with F4/80 to observe the level of muscle inflammation.” for “fibrosis.”

[3] = system: Duchenne muscular dystrophy model mice; experiment: In vivo pharmacodynamic test in Duchenne muscular dystrophy model mice (Compound 30); conditions: 1 mg/kg intragastric once daily
Protocol: Experimental Animals: A total of 35 Duchenne muscular dystrophy model mice were divided into 6 groups as shown below.
Intragastric administration was initiated from Day 0. Body weight was measured daily during the experiment to adjust the drug dosage. Grip strength tests were performed every 2 days to observe changes in the mice's grip strength until the experiment concluded on Day 21. Changes in the limb grip strength, serum creatine kinase content, and muscle fibrosis/inflammation in the mice were detected as indicators for evaluating drug efficacy.
as §5, §7
as §6, with “fibrosis. The slice was subjected to immunofluorescence staining with F4/80 to observe the level of muscle inflammation.” for “fibrosis.”

[4] = 3 mg/kg intragastric once daily
[5] = 20 mg/kg intragastric once daily

T3 sequence (P21453 whole entry): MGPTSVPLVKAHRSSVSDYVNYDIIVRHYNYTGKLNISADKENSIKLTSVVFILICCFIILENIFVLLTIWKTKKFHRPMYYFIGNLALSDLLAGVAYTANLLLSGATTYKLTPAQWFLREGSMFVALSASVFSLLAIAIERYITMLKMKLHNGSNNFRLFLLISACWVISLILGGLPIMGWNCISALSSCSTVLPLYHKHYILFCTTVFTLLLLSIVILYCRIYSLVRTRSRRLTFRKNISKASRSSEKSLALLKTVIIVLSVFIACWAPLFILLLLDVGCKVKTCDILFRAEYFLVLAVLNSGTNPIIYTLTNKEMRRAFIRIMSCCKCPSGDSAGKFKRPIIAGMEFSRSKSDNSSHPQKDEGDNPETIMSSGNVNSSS

Structure (SMILES): CCc1cc(/C(C)=N/OCc2ccc(-c3cnc(F)cn3)c(C)c2)ccc1CN1CC[C@H](C(=O)O)C1 [Compound 67, (S, E)-1-(2-ethyl-4-(1-(((4-(5-fluoropyrazin-2-yl)-3-methylbenzyl)oxy)imino)ethyl)benzyl)pyrrolidine-3-carboxylic acid]
collagen deposition (collagen area ratio) [1, 4]: significantly reduced collagen deposition
macrophage levels (F4/80 macrophage marker, muscle inflammation) [1, 4]: significantly reduced macrophage levels
number of centrally nucleated fibers (HE staining) [1, 4]: significantly reduced
serum creatine kinase level [1, 4]: significantly reduced the creatine kinase level
rotarod time [1, 4]: increased
grip strength [1, 4]: marked increase; also recorded: significantly elevated
grip strength ([1]; 3 mg/kg intragastric once daily, listed as compound 67): increased significantly
S1PR4 internalization (expression of S1PR4 receptor on the cell surface) (S1PR4): sustained internalization capacity
atrophy of the tibialis anterior muscle (LPS-induced sepsis model; high dose (Compound 30: 10mg/kg intraperitoneal once daily)): significantly inhibited
atrophy of the tibialis anterior muscle (LPS-induced sepsis model; medium dose (Compound 30: 1mg/kg intraperitoneal once daily)): significantly inhibited

Structure (SMILES): CCc1cc(/C(C)=N/OCc2ccc(-c3ccccc3)c(C)c2)ccc1CNCCCC(=O)O [Compound 32, (E)-4-((2-ethyl-4-(1-((2-methyl-[1,1'-biphenyl]-4-yl)methoxy)imino)ethyl)benzyl)aminobutyric acid]
EC50 (hS1P4-R-79C): 110 ± 6.85 nM

Structure (SMILES): C/C(=N\OCc1ccc(C2CCCCC2)c(C(F)(F)F)c1)c1ccc(CN2CC(C(=O)O)C2)c(C(F)(F)F)c1 [Compound 19]
EC50 (hS1P1): 8.63 ± 0.39 nM
EC50 (hS1P4): 564 ± 184 nM
EC50 (hS1P4-R-79C): 121 ± 30.4 nM

Structure (SMILES): CCCCCCCCCCCCC/C=C/[C@@H](O)[C@@H](N)COP(=O)(O)O [Compound S1P, sphingosine 1-phosphate, reference compound]
S1PR4 internalization (expression of S1PR4 receptor on the cell surface) (S1PR4): can induce S1PR4 internalization

Structure (SMILES): C[C@@H]1C[C@H]2[C@@H]3CCC4=CC(=O)C=C[C@]4(C)C3=CC[C@]2(C)[C@@]1(O)C(=O)CO [Vamorolone, reference compound]
collagen deposition (collagen area ratio) [1, 5]: significantly reduced collagen deposition
macrophage levels (F4/80 macrophage marker, muscle inflammation) [1, 5]: significantly reduced macrophage levels
number of centrally nucleated fibers (HE staining) [1, 5]: significantly reduced
serum creatine kinase level [1, 5]: significantly reduced the creatine kinase level
rotarod time [1, 5]: increased
grip strength [1, 5]: increased significantly; also recorded: marked increase; also recorded: significantly elevated

The next lines start with results.

EC50 (hS1P4): 262 ± 37.3 nM
EC50 (hS1P4-R-79C): 160 ± 4.9 nM
Structure (SMILES): C/C(=N\OCc1ccc(C2CCCCC2)c(C(F)(F)F)c1)c1ccc(CNCCC(=O)O)cc1 [Compound 10, (E)-3-((4-((1-((4-cyclohexyl-3-(trifluoromethyl)benzyl)oxy)imino)ethyl)benzyl)amino)propanoic acid]

EC50 (hS1P1): 2.95 ± 0.69 nM
EC50 (hS1P4): 266 ± 62.8 nM
EC50 (hS1P4-R-79C): 63.1 ± 21.8 nM
Structure (SMILES): C/C(=N\OCc1ccc(C2CCCCC2)c(C(F)(F)F)c1)c1ccc(CN2CC(C(=O)O)C2)c(C)c1 [Compound 18]

EC50 (hS1P1): 2.21 ± 0.58 nM
EC50 (hS1P4-R-79C): 95.6 ± 42.1 nM
Structure (SMILES): CCc1cc(/C(C)=N/OCc2ccc(C3CCCC3)c(C(F)(F)F)c2)ccc1CN1CC(C(=O)O)C1 [Compound 17]

EC50 (hS1P1): 1.04 nM
S1PR4 internalization (expression of S1PR4 receptor on the cell surface) (S1PR4): cannot induce S1PR4 internalization
EC50 (hS1P4-R-79C): 157 nM
Structure (SMILES): CCc1cc(/C(C)=N/OCc2ccc(C3CCCCC3)c(C(F)(F)F)c2)ccc1CN1CC(C(=O)O)C1 [BAF312, reference compound]
collagen deposition (collagen area ratio) ([2]; after administration): significantly reduced collagen deposition
serum creatine kinase level ([2]; after treatment): significantly reduced
body weight gain trend ([2]; compared with the model group): no difference
collagen deposition (collagen area ratio) [3]: no difference
macrophage content (F4/80 immunofluorescence, muscle inflammation) [3]: no improvement
number of centrally nucleated fibers (HE staining) [3]: significantly reduced
serum creatine kinase level ([3]; after treatment): no such effect
body weight growth trend ([3]; compared with the model group): no difference
